Settings: polymer system of polydimethylsiloxane vinyl terminated at various viscosity and a range of platinum-mono, di, tri and/or tetramethyldisiloxane complex
Excerpt: The amount of vinyl siloxane cross-linker may determine the rate of the drug release and diffusivity of the polymer to the drug.

CC(=O)O[C@H]1C(=O)[C@@]2(C)[C@H]([C@H](OC(=O)c3ccccc3)[C@]3(O)C[C@H](OC(=O)[C@H](O)[C@@H](NC(=O)c4ccccc4)c4ccccc4)C(C)=C1C3(C)C)[C@]1(OC(C)=O)CO[C@@H]1C[C@@H]2O [paclitaxel]
release profile: acceptable
